Test results taken from patent US20210284617A1, “Synthesis of (S)-2-Amino-4-Methyl-((R)-2-Methyloxirane-2-Yl)-Pentan-1-One and Pharmaceutically Acceptable Salts Thereof” (Amgen Inc., priority 2016, published 2021).
In brackets after ≈: the same amount, converted by molar mass.

How the values were obtained:
[1] = Storage stability of the step 2 product, concentrated or in ACN/MTBE solution; assay type: physicochemical; conditions: for time stable in solution: 2-10 V of ACN or MTBE
Source text: Appropriate quenching of the Grignard process is important to ensure product quality and to eliminate racemization. A Grignard adduct impurity resulting from double-addition of the Grignard reagent was detected by LCMS at ˜2 LCAP during inverse addition of the reaction mixture to a mixture of MTBE (5 V) and 25% citric acid aqueous solution (10 V). An increase in the level of the double-addition by-product (up to 11 LCAP) was observed when quenching the reaction mixture into citric acid solution (in the absence of MTBE) with an associated decrease in product yield by >35%. The excess Grignard could react with product of step 2 that was hydrolyzed after work-up leading to the formation of the impurity. Of note, the impurities of double-addition, morpholine-adduct and dimers could not be detected by HPLC due to their relatively low response factors, but could be detected by LCMS and TLC (EtOAc/heptane 1:4, Nihydrin). Thus, it is important to carefully control the amount of Grignard reagents used and to carefully quench the reaction upon completion. Racemization of step 2 product was not observed during the course of optimization of the Grignard process or during the inverse quenching step. The concentrated product with BHT was stable at ambient temperature for one month; BHT in this sample originated from the solvent (250 ppm in stabilized THF) used in the Grignard process. The solution containing the product of step 2 in 2-10 V of ACN or MTBE was stable at room temperature or 5° C. for at least 4 days or 18 hours at 35° C., which was required to optimize the solvent switch to ACN for the step 3 epoxidation.

[2] = Solubility of compound in organic solvents (crystallization development); assay type: physicochemical; conditions: for solubility in organic solvents (in words): isolation/crystallization context
Source text: Importantly, the intermediate synthesis of compound 3a allowed for the development of a crystallization process capable of purging upstream impurities and eliminating the requirement for column chromatography at step 1 or 2. […] Alternatively, a ternary system of three (3) solvents, such as acetonitrile/water/acetic acid will also work to isolate compound 3a. Further, the epoxidation step 3 in scheme 3 using the Mn-y76t catalyst of the present invention followed by crystallization with IPA/water worked well to not only to purge the diasteromer impurity but also to purge upstream process impurities.

SMILES | time stable in solution ([1]; 35° C.) | time stable in solution ([1]; room temperature or 5° C.) | time stable as concentrated product ([1]; concentrated product with BHT, ambient temperature) | solubility in organic solvents (in words) [2] | solubility ([2]; organic solvent or mixture, n-hexane at −20° C.)
C=C(C)C(=O)[C@@H](CC(C)C)NC(=O)OC(C)(C)C [compound 2a, (R)-tert-butyl (2,6-dimethyl-3-oxohept-1-en-4-yl)carbamate] | 18 h | at least 4 days | one month |  | 
CC(C)C[C@@H](NC(=O)OC(C)(C)C)C(=O)[C@@]1(C)CO1 [compound 3a, tert-butyl ((R)-4-methyl-1-((R)-2-methyloxiran-2-yl)-1-oxopentan-2-yl)carbamate] |  |  |  | improved solubility profile | 
CC(C)C[C@H](NC(=O)OC(C)(C)C)C(=O)[C@@]1(C)CO1 [compound 4a, tert-butyl ((S)-4-methyl-1-((R)-2-methyloxiran-2-yl)-1-oxopentan-2-yl)carbamate] |  |  |  | high solubility in most all organic solvents | ~34 mg/mL (≈ 125 mM)
